{"source": "ChEMBL document CHEMBL1806432", "about": "“Cytotoxic diterpenoid quinonemethides from the roots of Pygmacopremna herbacea” (Bioorg Med Chem Lett, 2011)", "type_in_all_cases": "functional, cell-based", "key": {"HeLa": {"tested_on": "HeLa", "experiment": "Cytotoxicity against human HeLa cells after 48 hrs by MTT assay"}, "A549": {"tested_on": "A549", "experiment": "Cytotoxicity against human A549 cells after 48 hrs by MTT assay", "conditions": "A549, 48 h"}, "HepG2": {"tested_on": "HepG2", "experiment": "Cytotoxicity against human HepG2 cells after 48 hrs by MTT assay", "conditions": "HepG2, 48 h"}, "MCF7": {"tested_on": "MCF7", "experiment": "Cytotoxicity against human MCF7 cells after 48 hrs by MTT assay", "conditions": "MCF7, 48 h"}, "PC-3": {"tested_on": "PC-3", "experiment": "Cytotoxicity against human PC3 cells after 48 hrs by MTT assay", "conditions": "PC-3, 48 h"}}, "data": [{"smiles": "CC(C)C1=CC2=CC=C3C(C)(C)[C@@H](O)C(=O)C[C@]3(C)C2=C(O)C1=O", "note": "[ISOBHARANGIN]", "values": [{"measurement": "IC50", "setting": "HeLa", "result": 103, "unit": "µg/mL"}, {"measurement": "IC50", "setting": "A549", "result": 24.1, "unit": "µg/mL"}, {"measurement": "IC50", "setting": "HepG2", "result": 6.29, "unit": "µg/mL"}, {"measurement": "IC50", "setting": "MCF7", "result": 28.2, "unit": "µg/mL"}, {"measurement": "IC50", "setting": "PC-3", "result": 62.2, "unit": "µg/mL"}]}, {"smiles": "CC(C)C1=CC2=CC=C3C(C)(C)COC(=O)[C@@]3(C)CC2=C(O)C1=O", "note": "[NEOBHARANGIN]", "values": [{"measurement": "IC50", "setting": "HeLa", "result": 104, "unit": "µg/mL"}, {"measurement": "IC50", "setting": "A549", "result": 2.61, "unit": "µg/mL"}, {"measurement": "IC50", "setting": "HepG2", "result": 13, "unit": "µg/mL"}, {"measurement": "IC50", "setting": "MCF7", "result": 0.39, "unit": "µg/mL"}, {"measurement": "IC50", "setting": "PC-3", "result": 48.6, "unit": "µg/mL"}]}, {"smiles": "COc1cccc2c1C(=O)c1c(O)c3c(c(O)c1C2=O)C[C@@](O)(C(=O)CO)C[C@@H]3O[C@H]1C[C@H](N)[C@H](O)[C@H](C)O1", "note": "[DOXORUBICIN]", "values": [{"measurement": "IC50", "setting": "HeLa", "result": 0.24, "unit": "µg/mL"}, {"measurement": "IC50", "setting": "A549", "result": 0.51, "unit": "µg/mL"}, {"measurement": "IC50", "setting": "HepG2", "result": 1.6, "unit": "µg/mL"}, {"measurement": "IC50", "setting": "PC-3", "result": 2.3, "unit": "µg/mL"}]}, {"smiles": "CC(C)C1=CC2=CC=C3C(C)(C)CC(=O)C[C@@]3(C)C2=C(O)C1=O", "values": [{"measurement": "IC50", "setting": "HeLa", "result": 15.6, "unit": "µg/mL"}, {"measurement": "IC50", "setting": "A549", "result": 17.6, "unit": "µg/mL"}, {"measurement": "IC50", "setting": "HepG2", "result": 38.2, "unit": "µg/mL"}, {"measurement": "IC50", "setting": "MCF7", "result": 27.6, "unit": "µg/mL"}, {"measurement": "IC50", "setting": "PC-3", "result": 1.7, "unit": "µg/mL"}]}, {"smiles": "CC(C)C1=CC2=CC=C3C(C)(C)CC(=O)O[C@@]3(C)CC2=C(O)C1=O", "note": "[BHARANGIN]", "values": [{"measurement": "IC50", "setting": "HeLa", "result": 14.1, "unit": "µg/mL"}, {"measurement": "IC50", "setting": "A549", "result": 2.03, "unit": "µg/mL"}, {"measurement": "IC50", "setting": "HepG2", "result": 14.3, "unit": "µg/mL"}, {"measurement": "IC50", "setting": "MCF7", "result": 0.006, "unit": "µg/mL"}, {"measurement": "IC50", "setting": "PC-3", "result": 2.95, "unit": "µg/mL"}]}]}
